# According to patent publication US20170340688A1, “TITRATED EXTRACTS OF CYNARA SCOLYMUS AND USES THEREOF” (priority 2014, published 2017):
# Legend:
# STAT3 [1] = molecular target: T1, STAT3 (Homo sapiens, UniProt P40763); experiment: Modulation of the STAT3 pathway in KARPAS cells (Western Blot, EMSA); type: cell-based; settings: extract 200 μg/ml (0.181% cynaropicrin) 2-4 hours, cynaropicrin 25 μM
# Experimental: (§1) The cells were lysed in ice for 30 min in lysis buffer NP40 (50 mM Tris-HCl pH 7.4, 150 mM NaCl, 1% NP-40, 1 mM EGTA, 1 mM EDTA) complemented with inhibitors of protease and phosphatase (5 mM PMSF, 3 mM NaF, 1 mM DTT, 1 mM NaVO4). Equal amounts of total extracts of protein (30 μg) were broken down by means of denaturing electrophoresis (SDS-PAGE) in 8% polyacrylamide gel and transferred for 2 hours on nitrocellulose membrane. The membranes were blocked with a 5% solution of milk dissolved in TBS-Tween_20 0.05% for 1 hour and incubated with the specific primary antibodies. The following primary antibodies were used: anti-beta actin (A-2228, SIGMA), anti-pSTAT3 (Tyr-705) (sc8059, Santa Cruz) and anti-STAT3 (sc7179, Santa Cruz). The secondary antibodies were peroxidase-conjugated (Santa Cruz), and ECL reagents (Amersham, GE Healthcare, Piscataway, N.J., USA) were used for the chemiluminescence.
# (§2) 200 μg/ml of extract that contains 0.181% of cynaropricrin contain 1.2 μM of cynaropricrin.
# [2] = system: confluent prostatic adenocarcinoma cell line DU145; experiment: WST-1 cell vitality assay, confluent DU145 (high levels of constitutively activated STAT3); type: cell-based, human
# Experimental: FIG. 7 Assay of cell vitality in the confluent prostatic adenocarcinoma cell line DU145, treated with various concentrations of artichoke extract (50-600 μg/ml) for various treatment times (24 and 48 hours) with indications of the content in cynaropicrin of the extract. The confluency of the cells increases the levels of constitutively activated STAT3, making the cells themselves largely resistant to death. The vitality was analysed using the WST-1 assay (WST-1 test, see the experimental section for the conditions). […] The squares show the trend over 24 hours and the circles show the trend at 48 hours with extract doses from 0 to 600 μg/ml and the respective content in cynaropicrin, expressed both in μg/ml and in μM, of the extract at the various concentrations (100, 200, 300, 400, 500, 600 μg/ml).
# FIG. 8. […] The vitality was analysed using the WST-1 assay (WST-1 test, see the experimental section for the conditions). […]
# Cytotoxicity was assayed using the WST assay (WSTs=water soluble tetrazolium salts) which utilises the ability of mitochondrial dehydrogenases to separate the tetrazole ring from the yellow-coloured WST molecule (tetrazolium salt) to give an orange formazan salt. The amount of formazan produced following the treatment of the cells with the substances being tested is measured using spectrophotometry and is proportional to the number of living cells. […]
# [3] = system: human carcinoma cells DU145; experiment: WST-1 cell vitality in co-treatment with chemotherapeutic agents, DU145; type: cell-based
# Experimental: Cytotoxicity was assayed using the WST assay (WSTs=water soluble tetrazolium salts) which utilises the ability of mitochondrial dehydrogenases to separate the tetrazole ring from the yellow-coloured WST molecule (tetrazolium salt) to give an orange formazan salt. The amount of formazan produced following the treatment of the cells with the substances being tested is measured using spectrophotometry and is proportional to the number of living cells. WST-1 and in particular WST-8 (2-(2-methoxy-4-nitrophenyl)-3-(4-nitrophenyl)-5-(2,4-disulfophenyl)-2H-tetrazolium) are advantageous with respect to MTT because they reduce outside the cells, in combination with PMS as electron mediator, to produce water-soluble formazan.
# The assays were carried out in parallel with variable doses of cynaropicrin in place of the extract, to compare the efficacy of the extract and that of cynaropicrin.
# GSH = experiment: Intracellular analysis of GSH (colorimetric); type: cell-based; settings: cynaropicrin 12.5, 25, 50 μM
# Experimental: The intracellular concentration of GSH was evaluated by means of a colorimetric method. The cell extract, deproteinised by means of 10% trichloroacetic acid, was treated with dithio nitrobenzene (DTNB), and the quantity of TNB, which is released following the reaction with GSH, was evaluated by analysing the absorbance at 412 nm.
# STAT3 [4] = experiment: Glutathionylation of STAT3; type: cell-based; settings: cynaropicrin 12 microM, 25 μM
# Experimental: STAT3 was immunoprecipitated by incubating the protein cell extract overnight with an anti-STAT3 antibody. The proteins obtained were separated by means of SDS-PAGE in non-reducing conditions and were transferred on PVDF membrane. The glutathionylated STAT3 was recognised using an anti-GSH antibody.
# STAT3 [5] = molecular target: T1, STAT3; experiment: Modulation of the STAT3 pathway in DU145 cells (Western Blot, EMSA); type: cell-based; set-up: The cell line DU145 expresses pStat3 in a constitutive manner; endogenous in cells; host or cells: DU145 (human prostate carcinoma, ATCC HTB-81); settings: extract 200 μg/ml (0.181% cynaropicrin) 2-4 hours, cynaropicrin 25 μM
# Experimental: as §1, §2
# MDA-MB231 = experiment: Cell vitality by Trypan Blue/Countess, MDA-MB231 under normoxia; type: cell-based; settings: Homo sapiens, MDA-MB-231, 24 hours
# Experimental: Human breast cancer cell lines T47-D and MDA-MB231, human colorectal adenocarcinoma line HT-29, human prostate cancer line DU145, human uterine cervix carcinoma cell line HeLa, human hepatocarcinoma cell line HepG2 (ATCC, American Type Culture Collection) were cultivated in DMEM (BioWhittaker, Cambrex Bio Science, Belgium) in a 5% CO2 atmosphere at 37° C.
# (§3) Cell vitality was assessed with a 0.4% Trypan Blue exclusion test, using an automated Countess cell counter (Life Technologies™).
# (§4) The model created appears adapted for the study of plant extracts to be used in association with the classic chemotherapeutic agents. Then cells were treated with doxorubicin, with plant extracts or with their association, and cell vitality was analysed by Trypan Blue/Countess Invitrogen as described in the annexed Materials and Methods. The following treatments were performed:
# MDA-MB231 cells cultivated under normoxia and under chronic hypoxia were treated for 24 hours with various concentrations of doxorubicin, elective drug in the treatment of breast cancer.
# in vitro = type: cell-based, human; settings: human
# Experimental: (§5) To establish a chronic hypoxia model, the above cell lines were cultivated in DMEM with 10% FBS in 5% CO2 and 1% O2 atmosphere, balanced with N using a multigas incubator (Ruskinn C300, Ruskinn Technology Ltd., Bridgend, United Kingdom). Cells survived through each cell passage were selected and cultivated with reoxygenation and hypoxia cycles for at least 3 months and up to 6 months.
# as §3
# (§6) In order to re-create a state of chronic hypoxia, present in the interior of a solid tumour, all cell lines indicated in the table above were cultivated for some months in the Ruskin Cabinet at 37° C., under a 1% O2 atmosphere. The medium was changed every three days so as to eliminate dead cells, and approximately every 10-15 days the cells were placed in the incubator under normoxia conditions for 24 hours.
# (§7) Among all cells analysed, only MDA-MB231 cell line adapted to the hypoxic environment and survived. […]
# as §4, with “The following treatments were performed:” left out
# ChR-MDA-MB231 = experiment: cells; type: cell-based, human; settings: Homo sapiens; chMDAMB231, chronic hypoxia; 24 hours; read-out: EC50 cell vitality
# Experimental: as §5, §3, §6, §7
# as §4, with “The following treatments were performed:” left out
# T1 sequence (P40763 whole entry): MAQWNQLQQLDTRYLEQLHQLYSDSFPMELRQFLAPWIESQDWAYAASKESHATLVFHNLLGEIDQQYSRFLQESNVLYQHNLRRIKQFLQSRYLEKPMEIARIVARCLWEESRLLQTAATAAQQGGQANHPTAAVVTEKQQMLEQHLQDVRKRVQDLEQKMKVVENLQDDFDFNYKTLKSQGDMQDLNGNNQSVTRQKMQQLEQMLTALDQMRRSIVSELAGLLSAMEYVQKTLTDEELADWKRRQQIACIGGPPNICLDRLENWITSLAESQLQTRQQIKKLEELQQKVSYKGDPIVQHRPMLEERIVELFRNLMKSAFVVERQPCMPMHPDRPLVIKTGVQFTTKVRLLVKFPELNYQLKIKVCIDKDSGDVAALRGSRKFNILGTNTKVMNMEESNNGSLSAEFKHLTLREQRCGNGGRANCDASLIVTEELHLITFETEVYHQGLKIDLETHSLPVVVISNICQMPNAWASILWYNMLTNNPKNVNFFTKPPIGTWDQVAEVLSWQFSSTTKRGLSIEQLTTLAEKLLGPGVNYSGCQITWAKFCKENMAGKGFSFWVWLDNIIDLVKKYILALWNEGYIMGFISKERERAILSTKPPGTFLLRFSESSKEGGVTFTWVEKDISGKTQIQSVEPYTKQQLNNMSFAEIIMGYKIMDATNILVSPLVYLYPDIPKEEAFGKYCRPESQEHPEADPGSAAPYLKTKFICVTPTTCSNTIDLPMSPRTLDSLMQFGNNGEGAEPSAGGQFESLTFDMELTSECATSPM
SMILES,binding of STAT3 to DNA (EMSA) (STAT3 [1]),phosphorylation of STAT3 (Western Blot) (STAT3 [1]),"cell vitality (WST-1) ([2]; 24 and 48 hours, extract 50-600 μg/ml, cynaropicrin 0-70 μM)","concentration of cynaropicrin for reduction of vitality equal to approximately 90% ([2]; 48 hours, cynaropicrin alone)","molarity of cynaropicrin necessary to reduce cell vitality below 20%, relative to that present in the artichoke extract ([3]; with cisplatinum 15 μg/ml)","molarity of cynaropicrin necessary to reduce cell vitality below 20%, relative to that present in the artichoke extract ([3]; with doxorubicin 2 μg/ml)",intracellular concentration of GSH (GSH),glutathionylation of STAT3 (STAT3 [4]),binding of STAT3 to DNA (EMSA) (STAT3 [5]),phosphorylation of STAT3 (Western Blot) (STAT3 [5]),EC50 (MDA-MB231),mortality at 0.25 ug/ml (in vitro),EC50 (ChR-MDA-MB231)
C=C(CO)C(=O)O[C@H]1CC(=C)[C@@H]2C[C@H](O)C(=C)[C@@H]2[C@H]2OC(=O)C(=C)[C@@H]21 [cynaropicrin],inhibits the binding of STAT3 to DNA,inhibits the phosphorylation of STAT3,inhibits cell vitality in a time-dependent and dose-dependent manner,50 µM,forty times greater,approximately twenty-five times greater,time-dependent and dose-dependent reduction of the intracellular concentration of GSH,determines the glutathionylation of STAT3,inhibit the binding of STAT3 to DNA,inhibit the phosphorylation of STAT3,,,
COc1cccc2c1C(=O)c1c(O)c3c(c(O)c1C2=O)C[C@@](O)(C(=O)CO)C[C@@H]3O[C@H]1C[C@H](N)[C@H](O)[C@H](C)O1 [doxorubicin],,,,,,,,,,,0.25 µg/mL,20%,1 µg/mL
